The test concerns human whole blood. Format: cell-based.

Read-outs that look alike come from different tables or passages of the source.

Source text: One or more samples of human whole blood were collected by a licensed medical doctor from a healthy volunteer known to refrain from the taking of anticoagulant medications such as, for example, aspirin. Written informed consent of the donors was collected under an approved protocol from the Internal Review Board at the UT Health Science Center. Human whole blood was collected, by antecubital venipuncture, into vials 12 containing the anticoagulant sodium citrate (3.8%, applied at a 9:1 blood to citrate ratio).
Embodiments of the apparatus 10 of the present invention may also be used to characterize clot contraction. […] The test volume was 27 μL; however, to ensure filling of the test chamber and complete immersion within the blood sample 50 of the wetted portion 24/plate 15 of the probe 20 disposed within the vial 15, a volume of 250 μL of blood was injected into a vial 15 comprising glass. Data recording began once the wetted portion 24/plate 15 was lowered into position such that it was immersed within the blood sample 50 and was 1 mm away from the lower member 50, both of which comprised acrylic. Deflection of the wire portion 21 of the probe 20 typically began after 360 to 480 seconds, and data collection was concluded after 3,600 seconds (1 hour).

For the compound `C=C1[C@@H](C)[C@H]2[C@H](Cc3ccccc3)NC(=O)[C@]23[C@H](OC(C)=O)/C=C/[C@@](C)(O)C(=O)[C@@H](C)C/C=C/[C@H]3[C@@H]1O` [cytochalasin D], the contraction force entry (increasing concentrations in human whole blood) is given as “dose-dependent decrease”.
Regarding `c1nnn[nH]1` [tetrazole], the contraction force entry reads like this: (1 mMol in human whole blood, FIG. 41) “enhanced contraction force”; (60 mMol in human whole blood, FIG. 41) “reduced contraction force”.
